Data: US11584747B2, “Substituted pyridopyrimidinonyl compounds useful as T cell activators” (BRISTOL-MYERS SQUIBB COMPANY, priority 2019, dated 2023)
Like-named read-outs stand apart in the source and are kept apart here.

Assays:
[1] = target: human DGKζ (Homo sapiens (Human), UniProt Q13574); assay: DGKζ LIPGLO assay (extruded liposome substrate, ADP-Glo luminescence); assay type: biochemical; conditions: liposome assay; read-out: DGK zeta LIPGLO IC50
[2] = target: human DGKα (Homo sapiens (Human), UniProt P23743); assay: DGKα ADPGLO assay (detergent/lipid micelle substrate); assay type: biochemical; conditions: truncated DGK alpha; read-out: DGK alpha ADPGLO (Truncated) IC50
Experimental: DGK Alpha ADPGLO (Truncated) IC50 (uM)
The detergent/lipid micelle was prepared by combining 15 g phosphatidylserine (Avanti 840035P) and 1 g diacylglycerol (8008110) and dissolving into 150 mL chloroform in a 2 L round bottom flask. Chloroform was removed under high vacuum by rotary evaporation. […] The lipid/detergent solution was split into 5 mL aliquots and stored at −80° C.

[3] = system: human venous whole blood (IFN-γ); assay: Human whole blood IFN-γ assay; assay type: cell-based; conditions: whole blood, normalized to 3 μM reference compound as 100% activation, read-out: IFN-γ Whole Blood Normalized EC50
Experimental: Human venous whole blood (22.5 μL per well), obtained from healthy donors, was pre-treated with compounds for one hour at 37° C. in a humidified 95% air/5% CO2 incubator. The blood was stimulated with 2.5 μL anti-human CD3 and anti-CD28 mAb at a final concentration of 1 μg/mL each for 24 hours at 37° C. IFN-γ in the supernatants was measured using AlphLISA kit (Cat #AL217).

[4] = system: whole blood (pERK); assay: pERK Whole Blood assay (Table A; no whole-blood pERK method described); assay type: cell-based; conditions: normalized

human DGKζ, sequence (Q13574 other isoform, or with tags, fused parts or gaps): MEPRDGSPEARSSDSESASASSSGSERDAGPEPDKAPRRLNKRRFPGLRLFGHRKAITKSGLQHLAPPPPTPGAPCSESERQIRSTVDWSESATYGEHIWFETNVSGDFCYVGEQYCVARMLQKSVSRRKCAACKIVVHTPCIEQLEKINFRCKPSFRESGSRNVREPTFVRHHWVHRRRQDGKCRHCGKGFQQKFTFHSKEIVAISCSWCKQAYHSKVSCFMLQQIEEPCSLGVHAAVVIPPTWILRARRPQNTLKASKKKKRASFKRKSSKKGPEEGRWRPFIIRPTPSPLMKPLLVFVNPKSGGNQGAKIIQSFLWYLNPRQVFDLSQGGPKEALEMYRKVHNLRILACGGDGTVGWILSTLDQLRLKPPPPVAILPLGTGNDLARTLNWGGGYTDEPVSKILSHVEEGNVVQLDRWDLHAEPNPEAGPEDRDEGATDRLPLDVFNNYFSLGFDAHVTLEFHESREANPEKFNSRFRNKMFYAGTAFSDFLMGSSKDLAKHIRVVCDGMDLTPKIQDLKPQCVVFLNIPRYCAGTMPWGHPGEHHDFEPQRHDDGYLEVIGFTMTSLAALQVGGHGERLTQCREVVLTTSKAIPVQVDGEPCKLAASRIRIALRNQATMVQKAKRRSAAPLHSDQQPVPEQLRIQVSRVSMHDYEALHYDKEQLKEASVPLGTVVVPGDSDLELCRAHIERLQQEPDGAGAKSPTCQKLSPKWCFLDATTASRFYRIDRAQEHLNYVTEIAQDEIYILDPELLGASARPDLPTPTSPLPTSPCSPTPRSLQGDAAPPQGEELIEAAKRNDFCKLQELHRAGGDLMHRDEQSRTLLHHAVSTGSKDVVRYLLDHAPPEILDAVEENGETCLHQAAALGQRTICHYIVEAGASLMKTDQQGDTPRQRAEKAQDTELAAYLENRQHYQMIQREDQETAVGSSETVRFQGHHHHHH
human DGKα, sequence (P23743 whole entry, looked up, the tested form may be a part): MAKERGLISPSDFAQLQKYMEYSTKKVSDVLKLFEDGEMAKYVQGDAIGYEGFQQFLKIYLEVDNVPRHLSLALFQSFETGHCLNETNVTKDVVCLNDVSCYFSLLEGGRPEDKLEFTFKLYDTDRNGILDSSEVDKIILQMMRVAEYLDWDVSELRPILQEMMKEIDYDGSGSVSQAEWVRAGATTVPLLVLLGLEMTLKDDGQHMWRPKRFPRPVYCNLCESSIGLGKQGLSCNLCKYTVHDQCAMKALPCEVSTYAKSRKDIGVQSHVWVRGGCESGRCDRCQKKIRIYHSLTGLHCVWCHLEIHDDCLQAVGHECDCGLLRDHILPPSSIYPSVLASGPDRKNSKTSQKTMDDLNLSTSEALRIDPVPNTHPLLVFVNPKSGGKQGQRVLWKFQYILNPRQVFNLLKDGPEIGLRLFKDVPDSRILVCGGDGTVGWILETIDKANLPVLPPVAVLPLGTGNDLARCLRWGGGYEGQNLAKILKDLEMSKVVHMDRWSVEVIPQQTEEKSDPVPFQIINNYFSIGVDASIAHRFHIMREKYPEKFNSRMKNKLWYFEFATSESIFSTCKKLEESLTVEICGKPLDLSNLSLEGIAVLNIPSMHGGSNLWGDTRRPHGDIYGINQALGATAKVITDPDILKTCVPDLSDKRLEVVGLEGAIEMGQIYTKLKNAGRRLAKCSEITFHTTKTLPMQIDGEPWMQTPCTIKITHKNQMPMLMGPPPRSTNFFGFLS

Row | Compound | IC50 [1] [nM] | IC50 [2] [nM] | EC50 [3] [nM] | IC50 [4] [nM] | EC50 ([3]; Homo sapiens) [nM]
1 | CC[C@H]1CN(C(C)c2cccc(OC)n2)[C@H](CC)CN1c1nc(=O)n(C)c2ccc(C#N)nc12 (stereo partly drawn) [Example 214, 4-((2S,5R)-2,5-diethyl-4-(1-(6-methoxypyridin-2-yl)ethyl)piperazin-1-yl)-1-methyl-2-oxo-1,2-dihydropyrido[3,2-d]pyrimidine-6-carbonitrile] | 6620 | 2010 | 20000 | 66 | –
2 | CC[C@@H]1CN(c2nc(=O)n(C)c3ccc(C#N)nc23)[C@@H](C)CN1C(c1ccc(Cl)cc1)c1ccccn1 (single isomer, unassigned) [Example 96] | – | 96 | 57 | 200 | –
3 | CCC(c1ccc(C)cc1)N1C[C@H](CC)N(c2nc(=O)n(C)c3ccc(C#N)nc23)C[C@H]1CC (stereo partly drawn) [Example 236, 4-((2S,5R)-2,5-diethyl-4-(1-(p-tolyl)propyl)piperazin-1-yl)-1-methyl-2-oxo-1,2-dihydropyrido[3,2-d]pyrimidine-6-carbonitrile] | 58 | 9 | 12 | 44 | –
4 | CC[C@H]1CN(C(C)c2cccc(OC(F)F)n2)[C@H](CC)CN1c1nc(=O)n(C)c2ccc(C#N)nc12 (stereo partly drawn) [Example 241, 4-((2S,5R)-4-(1-(6-(difluoromethoxy)pyridin-2-yl)ethyl)-2,5-diethylpiperazin-1-yl)-1-methyl-2-oxo-1,2-dihydropyrido[3,2-d]pyrimidine-6-carbonitrile] | 920 | 460 | 2420 | 190 | –
5 | CC[C@H]1CN(C(C)c2ccc(CN3CCC[C@@H](O)C3)cc2)[C@H](CC)CN1c1nc(=O)n(C)c2ccc(C#N)nc12 (stereo partly drawn) [Example 289, 4-((2S,5R)-2,5-diethyl-4-(1-(4-(((R)-3-hydroxypiperidin-1-yl)methyl)phenyl)ethyl)piperazin-1-yl)-1-methyl-2-oxo-1,2-dihydropyrido[3,2-d]pyrimidine-6-carbonitrile] | 8640 | 2700 | – | 350 | 5720
6 | CC[C@H]1CN(C(C)c2cnc(N3CCOCC3)nc2)[C@H](CC)CN1c1nc(=O)n(C)c2ccc(C#N)nc12 (stereo partly drawn) [Example 206, 4-((2S,5R)-2,5-diethyl-4-(1-(2-morpholinopyrimidin-5-yl)ethyl)piperazin-1-yl)-1-methyl-2-oxo-1,2-dihydropyrido[3,2-d] pyrimidine-6-carbonitrile] | 51000 | 3980 | 20000 | 80 | –
7 | CC[C@H]1CN(C(C)c2cccc(OC(F)F)n2)[C@H](CC)CN1c1nc(=O)n(C)c2ccc(C#N)nc12 (stereo partly drawn) [Example 240, 4-((2S,5R)-4-(1-(6-(difluoromethoxy)pyridin-2-yl)ethyl)-2,5-diethylpiperazin-1-yl)-1-methyl-2-oxo-1,2-dihydropyrido[3,2-d]pyrimidine-6-carbonitrile] | 110 | 73 | 270 | 290 | –
8 | CC[C@H]1CN(C(C)c2cccc(OC(F)(F)F)n2)[C@H](CC)CN1c1nc(=O)n(C)c2ccc(C#N)nc12 (stereo partly drawn) [Example 245, 4-((2S,5R)-2,5-diethyl-4-(1-(6-(trifluoromethoxy)pyridin-2-yl)ethyl)piperazin-1-yl)-1-methyl-2-oxo-1,2-dihydropyrido[3,2-d]pyrimidine-6-carbonitrile] | 290 | 18 | – | 410 | 220
9 | CCC(c1ccc(C2CC2)cc1F)N1C[C@H](C)N(c2nc(=O)n(C)c3ccc(C#N)nc23)C[C@H]1CC (stereo partly drawn) [Example 302, 4-((2S,5R)-4-(1-(4-cyclopropyl-2-fluorophenyl)propyl)-5-ethyl-2-methylpiperazin-1-yl)-1-methyl-2-oxo-1,2-dihydropyrido[3,2-d]pyrimidine-6-carbonitrile] | 43 | 9 | – | 34 | –
10 | CC[C@H]1CN(C(C)c2ccc(CN3C[C@@H](C)O[C@@H](C)C3)cc2)[C@H](CC)CN1c1nc(=O)n(C)c2ccc(C#N)nc12 (stereo partly drawn) [Example 291, 4-((2S,5R)-4-(1-(4-(((2S,6R)-2,6-dimethylmorpholino)methyl)phenyl)ethyl)-2,5-diethylpiperazin-1-yl)-1-methyl-2-oxo-1,2-dihydropyrido[3,2-d]pyrimidine-6-carbonitrile] | 430 | 110 | – | 390 | –
11 | CC[C@@H]1CN(c2nc(=O)n(C)c3ccc(C#N)nc23)[C@@H](C)CN1C(c1ccc(OC(F)(F)F)cc1)c1ccccn1 (single isomer, unassigned) [Example 93] | 520 | 18 | 170 | 670 | –
12 | CC[C@H]1CN(C(c2ccc(OC(C)C)cc2)C(C)C)[C@H](CC)CN1c1nc(=O)n(C)c2ccc(C#N)nc12 (stereo partly drawn) [Example 261, 4-((2S,5R)-2,5-diethyl-4-(1-(4-isopropoxyphenyl)-2-methylpropyl)piperazin-1-yl)-1-methyl-2-oxo-1,2-dihydropyrido[3,2-d]pyrimidine-6-carbonitrile] | 17 | 170 | – | 680 | –
13 | CC[C@H]1CN(C(C)c2ccc(CN3C[C@@H](C)O[C@@H](C)C3)cc2)[C@H](CC)CN1c1nc(=O)n(C)c2ccc(C#N)nc12 (stereo partly drawn) [Example 292, 4-((2S,5R)-4-(1-(4-(((2S,6R)-2,6-dimethylmorpholino)methyl)phenyl)ethyl)-2,5-diethylpiperazin-1-yl)-1-methyl-2-oxo-1,2-dihydropyrido[3,2-d]pyrimidine-6-carbonitrile] | 1010 | 210 | – | 1100 | –
14 | CCC(c1ccc(OC2CC2)cc1)N1C[C@H](CC)N(c2nc(=O)n(C)c3ccc(C#N)nc23)C[C@H]1CC (stereo partly drawn) [Example 256, 4-((2S,5R)-4-(1-(4-cyclopropoxyphenyl)propyl)-2,5-diethylpiperazin-1-yl)-1-methyl-2-oxo-1,2-dihydropyrido[3,2-d]pyrimidine-6-carbonitrile] | 2940 | 1510 | – | 290 | –
15 | CCC(c1ccc(CN2CCOCC2)cc1)N1C[C@H](CC)N(c2nc(=O)n(C)c3ccc(C#N)nc23)C[C@H]1CC (stereo partly drawn) [Example 267, 4-((2S,5R)-2,5-diethyl-4-(1-(4-(morpholinomethyl)phenyl)propyl)piperazin-1-yl)-1-methyl-2-oxo-1,2-dihydropyrido[3,2-d]pyrimidine-6-carbonitrile] | 100 | 41 | 45 | 1020 | –
16 | CCC(c1ccc(OC2CC2)cc1)N1C[C@H](CC)N(c2nc(=O)n(C)c3ccc(C#N)nc23)C[C@H]1CC (stereo partly drawn) [Example 255, 4-((2S,5R)-4-(1-(4-cyclopropoxyphenyl)propyl)-2,5-diethylpiperazin-1-yl)-1-methyl-2-oxo-1,2-dihydropyrido[3,2-d]pyrimidine-6-carbonitrile] | 120 | 58 | – | 540 | –
17 | CCC(c1ccc(OCC2CC2)cc1F)N1C[C@H](CC)N(c2nc(=O)n(C)c3ccc(C#N)nc23)C[C@H]1CC (stereo partly drawn) [Example 199, 4-((2S,5R)-4-(1-(4-(cyclopropylmethoxy)-2-fluorophenyl)propyl)-2,5-diethylpiperazin-1-yl)-1-methyl-2-oxo-1,2-dihydropyrido[3,2-d]pyrimidine-6-carbonitrile] | 920 | 630 | 2060 | 11300 | –
18 | CC[C@H]1CN(C(C)c2ccc(OC(C)(C)COC)cc2)[C@H](CC)CN1c1nc(=O)n(C)c2ccc(C#N)nc12 (some centres unmarked) [Example 188] | 310 | 14 | 73 | 270 | –
